One data set deals with T1, CYP1A2 (Homo sapiens, UniProt P05177).
T1 sequence (P05177 1-516): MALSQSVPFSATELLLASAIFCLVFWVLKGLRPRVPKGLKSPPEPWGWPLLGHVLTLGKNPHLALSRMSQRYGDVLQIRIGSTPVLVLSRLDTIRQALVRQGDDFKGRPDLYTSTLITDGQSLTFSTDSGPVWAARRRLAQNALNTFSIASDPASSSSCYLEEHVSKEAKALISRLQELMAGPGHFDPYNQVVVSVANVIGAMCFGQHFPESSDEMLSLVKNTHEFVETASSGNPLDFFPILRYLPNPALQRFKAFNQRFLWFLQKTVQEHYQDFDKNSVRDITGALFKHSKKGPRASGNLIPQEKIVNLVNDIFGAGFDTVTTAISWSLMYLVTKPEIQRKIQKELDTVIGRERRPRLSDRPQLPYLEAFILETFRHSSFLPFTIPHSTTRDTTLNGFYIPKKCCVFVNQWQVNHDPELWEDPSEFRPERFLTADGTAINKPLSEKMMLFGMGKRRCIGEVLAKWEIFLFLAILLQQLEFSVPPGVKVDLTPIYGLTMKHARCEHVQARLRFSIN
Put plainly: CYP1A2 inhibition, probe/drug metabolism in human liver microsomes (LC-MS/MS). To be noted: for IC50: IC50 against CYP 1A2, substrate phenacetin 40 μM, HLM; for activity at 30 min: human, human liver microsomes, pH 7.4, probe phenacetin 40 μM, Residual activity (%) CYP1A2, HLM 0.5 mg/mL. As for the experimental part:
(§1) The total volume of the in vitro metabolic incubation system is 200 μL. The probe substrate concentration in the system is shown in Supplementary Table S1. […] The reaction sample was preheated in a constant temperature mixer at 37°C. Then NADP^+ was added to the system to initiate the reaction. The reaction time is 30 min, and 100 μL acetonitrile will be added on time to quickly terminate the reaction, followed by centrifugation at 4°C and 20,000 g for 20 min. The supernatant was analyzed using liquid chromatography tandem mass spectrometry (LC-MS/MS), and the activity of CYP enzymes was evaluated by the generation of probe metabolites. The mass spectrometry information of probe substrates is shown in Supplementary Table S3.
(§2) The isolated triterpenoids (1–66) were used to establish a compounds library. The inhibitory effects of 66 triterpenoids from G. lucidum on seven subtypes of CYP enzymes (CYP1A2, 2A6, 2D6, 2B6, 2C9, 2C19, 3A4) were evaluated followed the above-mentioned experimental procedures.
(§3) For 16 clinical drugs metabolized by CYP enzymes, potential DDI studies were conducted on triterpenoids (6, 25) of G. lucidum, and IC50 values were measured.
(§4) Clinical drugs: Phenacetin, melatonin, clozapine and riluzole are metabolized by CYP1A2. Bupropion, artemisinin, efavirenz and sertraline are metabolized by CYP2B6. Diclofenac, valsartan, glimepiride and glibenclamide are metabolized by CYP2C9. Midazolam, imatinib, simvastatin and diltiazem are metabolized by CYP3A4.
(§5) Table S1. The information of probes for CYPs activity assay
(§6) Table S2. Information of clinical drugs

The target in a further data set is CYP2D6 (Homo sapiens, UniProt P10635). The data set can be described thus: CYP2D6 inhibition, dextromethorphan probe in human liver microsomes. To be noted: for activity at 30 min: human, human liver microsomes, pH 7.4, probe dextromethorphan 5 μM, Residual activity (%) CYP2D6, HLM 0.5 mg/mL. The procedure: as §1, §2, §5
(In general: Liver microsomes are a subcellular fraction often used to study metabolism.)

In another data set the target is CYP3A4 (Homo sapiens, UniProt P08684). Put plainly: CYP3A4 inhibition, probe/drug metabolism in human liver microsomes. To be noted: midazolam 5 μM, 30 min; for activity at 30 min: human, human liver microsomes, pH 7.4, probe midazolam 5 μM, Residual activity (%) CYP3A4, HLM 0.5 mg/mL. As for the experimental part:
as §1, §2, §3, §4, §5, §6

A further data set concerns the target T2, CYP2A6 (Homo sapiens, UniProt P11509).
T2 sequence (P11509 1-494): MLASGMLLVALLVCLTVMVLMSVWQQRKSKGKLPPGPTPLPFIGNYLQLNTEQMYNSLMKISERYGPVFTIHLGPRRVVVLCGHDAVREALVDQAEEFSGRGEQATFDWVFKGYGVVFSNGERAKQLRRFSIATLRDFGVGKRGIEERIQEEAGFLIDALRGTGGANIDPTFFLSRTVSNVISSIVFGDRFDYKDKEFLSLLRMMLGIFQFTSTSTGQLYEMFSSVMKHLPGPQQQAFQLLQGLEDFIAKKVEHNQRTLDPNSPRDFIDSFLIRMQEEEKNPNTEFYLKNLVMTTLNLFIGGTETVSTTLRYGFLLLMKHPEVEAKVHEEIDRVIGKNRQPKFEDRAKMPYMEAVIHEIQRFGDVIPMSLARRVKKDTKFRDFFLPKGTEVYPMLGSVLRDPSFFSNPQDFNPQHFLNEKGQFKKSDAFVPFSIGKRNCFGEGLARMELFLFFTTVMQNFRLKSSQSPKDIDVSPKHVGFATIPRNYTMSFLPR
Put plainly: CYP2A6 inhibition, coumarin probe in human liver microsomes. To be noted: for activity at 30 min: human, human liver microsomes, pH 7.4, probe coumarin 2 μM, Residual activity (%) CYP2A6, HLM 0.5 mg/mL. The procedure:
as §1, §2, §5

A further data set has as its target T3, CYP2B6 (Homo sapiens, UniProt P20813).
T3 sequence (P20813 1-491): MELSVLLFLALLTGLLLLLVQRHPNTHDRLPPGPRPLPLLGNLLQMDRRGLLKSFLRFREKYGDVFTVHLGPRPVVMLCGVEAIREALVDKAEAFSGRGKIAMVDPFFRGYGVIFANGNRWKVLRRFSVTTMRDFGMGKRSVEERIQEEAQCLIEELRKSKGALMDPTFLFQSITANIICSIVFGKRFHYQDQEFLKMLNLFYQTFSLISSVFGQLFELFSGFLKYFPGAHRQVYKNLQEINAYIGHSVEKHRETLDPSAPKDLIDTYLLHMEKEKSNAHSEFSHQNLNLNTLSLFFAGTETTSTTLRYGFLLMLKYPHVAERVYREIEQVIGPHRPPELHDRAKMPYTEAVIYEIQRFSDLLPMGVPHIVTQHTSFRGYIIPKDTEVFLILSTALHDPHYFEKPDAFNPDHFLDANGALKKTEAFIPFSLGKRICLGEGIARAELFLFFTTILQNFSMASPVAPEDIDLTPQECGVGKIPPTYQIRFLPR
Put plainly: CYP2B6 inhibition, probe/drug metabolism in human liver microsomes. The note with it: bupropion 75 μM, 30 min; for activity at 30 min: human, human liver microsomes, pH 7.4, probe bupropion 75 μM, Residual activity (%) CYP2B6, HLM 0.5 mg/mL. The procedure: as §1, §2, §3, §4, §5, §6

The target of another data set is CYP2C9 (Homo sapiens, UniProt P11712). The data set can be described thus: CYP2C9 inhibition, probe/drug metabolism in human liver microsomes. To be noted: diclofenac 4 μM, 30 min; for activity at 30 min: human, human liver microsomes, pH 7.4, probe diclofenac 4 μM, Residual activity (%) CYP2C9, HLM 0.5 mg/mL. The procedure:
as §1, §2, §3, §4, §5, §6

In the next data set the target is CYP2C19 (Homo sapiens, UniProt P33261). Put plainly: CYP2C19 inhibition, S-mephenytoin probe in human liver microsomes. To be noted: S-mephenytoin 50 μM, 30 min; for activity at 30 min: human, human liver microsomes, pH 7.4, probe S-mephenytoin 50 μM, Residual activity (%) CYP2C19, HLM 0.5 mg/mL. The procedure: as §1, §2, §5

From article PMC11605156, “Triterpenoids from Ganoderma lucidum inhibit cytochrome P450 enzymes interfering with the metabolic process of specific clinical drugs” (Frontiers in Pharmacology, 2024) come the findings set out here.

The IC50 is the point on the concentration scale where inhibition reaches its midpoint. A higher IC50 goes with weaker potency in that assay.

CYP3A4, sequence (P08684 whole entry): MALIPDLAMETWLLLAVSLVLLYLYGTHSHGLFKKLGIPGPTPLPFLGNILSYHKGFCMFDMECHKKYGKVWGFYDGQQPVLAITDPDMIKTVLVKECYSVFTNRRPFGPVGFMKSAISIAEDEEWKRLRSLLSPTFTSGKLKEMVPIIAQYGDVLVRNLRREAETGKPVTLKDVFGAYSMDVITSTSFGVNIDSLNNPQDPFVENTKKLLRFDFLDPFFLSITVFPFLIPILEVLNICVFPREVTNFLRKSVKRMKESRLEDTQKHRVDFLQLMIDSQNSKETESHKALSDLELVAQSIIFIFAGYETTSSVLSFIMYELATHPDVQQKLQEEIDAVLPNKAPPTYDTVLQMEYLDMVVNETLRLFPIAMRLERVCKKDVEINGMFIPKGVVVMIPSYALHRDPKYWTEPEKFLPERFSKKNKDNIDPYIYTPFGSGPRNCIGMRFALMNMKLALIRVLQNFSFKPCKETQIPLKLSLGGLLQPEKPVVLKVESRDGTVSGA
CYP2C9, sequence (P11712 whole entry): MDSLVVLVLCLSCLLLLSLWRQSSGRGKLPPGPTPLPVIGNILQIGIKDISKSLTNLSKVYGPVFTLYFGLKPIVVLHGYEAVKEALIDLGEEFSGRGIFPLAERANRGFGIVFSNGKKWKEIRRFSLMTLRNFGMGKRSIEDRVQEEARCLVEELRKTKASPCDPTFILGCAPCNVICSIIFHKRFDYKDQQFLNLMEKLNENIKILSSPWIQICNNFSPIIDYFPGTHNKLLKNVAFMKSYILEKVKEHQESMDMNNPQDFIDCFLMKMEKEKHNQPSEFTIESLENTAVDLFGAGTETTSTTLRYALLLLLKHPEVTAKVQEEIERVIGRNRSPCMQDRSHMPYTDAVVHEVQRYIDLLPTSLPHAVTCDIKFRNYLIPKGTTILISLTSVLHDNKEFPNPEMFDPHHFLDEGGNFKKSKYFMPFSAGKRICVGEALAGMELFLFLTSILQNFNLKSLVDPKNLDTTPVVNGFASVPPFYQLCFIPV
CYP2C19, sequence (P33261 whole entry): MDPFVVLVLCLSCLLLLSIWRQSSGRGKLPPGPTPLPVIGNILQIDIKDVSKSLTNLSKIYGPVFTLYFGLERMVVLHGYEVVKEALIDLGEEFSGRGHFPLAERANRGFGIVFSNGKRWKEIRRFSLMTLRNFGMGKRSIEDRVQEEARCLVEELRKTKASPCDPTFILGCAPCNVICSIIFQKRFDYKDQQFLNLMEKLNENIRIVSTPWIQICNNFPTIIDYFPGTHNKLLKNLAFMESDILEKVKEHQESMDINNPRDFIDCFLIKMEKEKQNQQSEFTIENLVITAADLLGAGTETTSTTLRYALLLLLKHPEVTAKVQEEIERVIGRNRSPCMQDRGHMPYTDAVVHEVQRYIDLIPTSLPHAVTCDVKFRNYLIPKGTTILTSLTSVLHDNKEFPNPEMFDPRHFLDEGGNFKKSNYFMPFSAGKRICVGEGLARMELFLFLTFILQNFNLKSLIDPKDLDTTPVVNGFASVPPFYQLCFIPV
CYP2D6, sequence (P10635 whole entry): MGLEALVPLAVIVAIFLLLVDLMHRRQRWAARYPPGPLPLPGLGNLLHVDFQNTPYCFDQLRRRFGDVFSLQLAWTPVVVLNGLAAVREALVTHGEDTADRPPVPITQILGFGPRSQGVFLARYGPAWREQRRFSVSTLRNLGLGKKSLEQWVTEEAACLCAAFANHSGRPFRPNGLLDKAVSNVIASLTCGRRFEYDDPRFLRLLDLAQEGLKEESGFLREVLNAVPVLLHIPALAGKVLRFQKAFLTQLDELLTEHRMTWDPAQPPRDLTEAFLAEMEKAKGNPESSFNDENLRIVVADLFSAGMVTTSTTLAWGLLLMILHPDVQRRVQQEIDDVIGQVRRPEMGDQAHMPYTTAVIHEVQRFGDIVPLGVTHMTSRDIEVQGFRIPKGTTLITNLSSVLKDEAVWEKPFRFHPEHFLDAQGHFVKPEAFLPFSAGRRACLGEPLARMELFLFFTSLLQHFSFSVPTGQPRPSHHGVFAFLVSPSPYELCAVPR

Consider `CC(=O)OC1C(=O)C2=C(C(=O)CC3C(C)(C)C(=O)CCC23C)C2(C)C(=O)CC(C(C)CC(=O)CC(C)C(=O)O)C12C` (centres unmarked) [Compound 50], for which the “Residual activity (%) CYP1A2” value at CYP1A2 (HLM 0.5 mg/mL, phenacetin 40 μM, 30 min) is 62.18±2.53%. Also, on CYP2D6 (HLM 0.5 mg/mL, dextromethorphan 5 μM, 30 min), the “Residual activity (%) CYP2D6” value is on record as 93.94±6.92%. The “Residual activity (%) CYP3A4” value on CYP3A4 (HLM 0.5 mg/mL) amounted to 98.83±1.66%. For the same molecule, the “Residual activity (%) CYP2A6” value at CYP2A6 (HLM 0.5 mg/mL, coumarin 2 μM, 30 min) is 89.71±3.49%. In addition, the “Residual activity (%) CYP2B6” value on CYP2B6 (HLM 0.5 mg/mL) came out at 77.48±4.68%. Besides, the “Residual activity (%) CYP2C9” value at CYP2C9 (HLM 0.5 mg/mL) came out at 96.49±3.97%. Moreover, the “Residual activity (%) CYP2C19” value at CYP2C19 (HLM 0.5 mg/mL) is 116.59±7.39%.

For `CC(=CC(=O)CC(C)C(=O)O)C1CC(=O)C2(C)C3=C(C(=O)CC12C)C1(C)CCC(=O)C(C)(C)C1CC3O` (centres unmarked) [Compound 51], at CYP1A2, the IC50 is 38.6 ± 9.4 µM. In addition, the activity at 30 min at CYP1A2 (phenacetin 40 μM, 30 min) worked out at 58 ± 2.08%; on CYP2D6 it was 89.5 ± 3.3%; at CYP3A4, 94.1 ± 7.18%; on CYP2A6 it was 86 ± 4.07%; on CYP2B6 it was 77.8 ± 7.96%; at CYP2C9 it was 99.8 ± 6.62%. Further, the activity at 30 min at CYP2C19 worked out at 110 ± 3.54%.

`CC(=O)OC1C(=O)C2=C(C(=O)CC3C2(C)CCC(O)C3(C)C)C2(C)C(=O)CC(C3(C)CCC(=O)O3)C12C` (centres unmarked) [Compound 56] displayed an IC50 on CYP1A2 of 34.2 ± 6.9 µM. Also, the activity at 30 min on CYP1A2 (phenacetin 40 μM, 30 min) worked out at 56 ± 0.69%; at CYP2D6, 86.9 ± 1.32%; at CYP3A4, 82.8 ± 1.1%; on CYP2A6 it was 72.3 ± 1.11%; at CYP2B6 it was 84.1 ± 0.94%; at CYP2C9, 92.5 ± 0.99%. In addition, the activity at 30 min at CYP2C19 stood at 109 ± 6.43%.
